Consider 8 molecules from ChEMBL document CHEMBL1125008 (J Med Chem, 1990).

In experiment [1] the target is T1, Serotonin 3 receptor (5HT3) (Mus musculus, UniProt Q9JHJ5+P23979).
T1 sequence (Q9JHJ5 whole entry): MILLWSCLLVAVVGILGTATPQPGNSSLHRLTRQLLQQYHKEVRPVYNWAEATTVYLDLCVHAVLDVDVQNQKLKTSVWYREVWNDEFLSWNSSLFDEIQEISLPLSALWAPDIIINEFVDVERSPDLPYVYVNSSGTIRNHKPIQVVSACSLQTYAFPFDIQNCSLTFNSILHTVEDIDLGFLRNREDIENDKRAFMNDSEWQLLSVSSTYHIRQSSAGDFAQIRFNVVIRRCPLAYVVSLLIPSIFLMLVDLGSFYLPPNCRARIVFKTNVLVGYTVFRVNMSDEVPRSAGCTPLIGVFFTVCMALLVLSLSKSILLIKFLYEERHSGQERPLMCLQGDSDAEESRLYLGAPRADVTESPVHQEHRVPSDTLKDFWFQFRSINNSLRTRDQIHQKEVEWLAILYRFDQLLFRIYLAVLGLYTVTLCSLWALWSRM
T1 sequence (P23979 whole entry): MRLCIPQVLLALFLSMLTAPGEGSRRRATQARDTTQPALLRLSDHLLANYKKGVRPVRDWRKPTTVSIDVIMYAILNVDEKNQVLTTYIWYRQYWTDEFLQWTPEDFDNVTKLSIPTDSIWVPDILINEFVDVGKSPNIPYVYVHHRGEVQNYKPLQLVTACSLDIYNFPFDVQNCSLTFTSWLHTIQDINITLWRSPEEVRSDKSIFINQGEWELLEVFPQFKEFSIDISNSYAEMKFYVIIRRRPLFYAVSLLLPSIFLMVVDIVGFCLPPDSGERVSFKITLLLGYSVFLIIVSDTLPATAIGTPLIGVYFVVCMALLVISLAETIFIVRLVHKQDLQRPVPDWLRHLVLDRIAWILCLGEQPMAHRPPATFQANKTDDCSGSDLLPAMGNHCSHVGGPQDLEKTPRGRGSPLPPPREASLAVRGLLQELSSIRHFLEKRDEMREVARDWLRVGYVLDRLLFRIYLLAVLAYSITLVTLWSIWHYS
In words: (§1) The binding affinity was measured for 5-hydroxytryptamine 3 receptor on NG 108-15 cell line of mouse neuroblastoma-glioma cells in presence of [3H]5 radioligand (in vitro). It counts as cell-based.

For experiment [2], the target named is T2, Serotonin 3 receptor (5HT3) (Mus musculus) (UniProt Q9JHJ5+P23979). The experiment is described as §1. It counts as cell-based. The conditions noted are these: concentration not given here.
For experiment [3], the target named is T2, Serotonin 3 receptor (5HT3) (Mus musculus). In words: Percent inhibition of [3H]5 binding to 5-hydroxytryptamine 3 receptor was evaluated by injection of compound (75 microCi/kg, […]) into the tail vein of mice (in vivo). The experiment is classed as organism-based.

As to `Cc1nccn1CC1CCc2c(c3ccccc3n2C)C1=O` (stereo not drawn) [ONDANSETRON], in experiment [1], the Ki stood at 12 nM. The same measure, in the same setting: next, `Cc1[nH]c2ccc(O)cc2c1CCN`: 1430 nM.

On to `Cc1[nH]cnc1Cc1nc(-c2ccccc2F)cs1`, for which the inhibition in experiment [2] amounted to 66%.

In the case of `CN1[C@@H]2CC[C@H]1C[C@@H](OC(=O)c1c[nH]c3ccccc13)C2` [TROPISETRON], the Ki in experiment [1] is given as 3.8 nM.

For `COc1ccccc1-c1csc(Cc2[nH]cnc2C)n1`, the inhibition in experiment [2] turned out to be 50%. Same read-out and setting: next, `Cc1[nH]cnc1Cc1nc(-c2ccccc2)cs1`: 53%. As to `c1ccc2nc(N3CCNCC3)ccc2c1` [QUIPAZINE], in experiment [1], the Ki was 8.67 nM. `Cc1[nH]cnc1Cc1nc(-c2cccc3cccnc23)cs1` gave an inhibition in experiment [3] of 54%.
